Source: patent US6423752B1, “Indane dimer compounds with smooth muscle relaxing and/or mast cell stabilizing and/or anti-inflammatory activity” (Venantius Limited, priority 1995, dated 2002)
Where two headings read alike, the source gives them in different places.

Assays:
mast cells = test: Histamine release assay (compound 48/80 stimulated mast cells); type: cell-based, Wistar rats; conditions: 2 × 10^−5 M, rat peritoneal mast cells; for inhibition at 20 µM: Rattus norvegicus, Mast cell, read-out: Percentage Inhibition of Histamine Release
Method: (§1) The compounds were assessed for their ability to stabilize mast cell membranes in vitro. Mast cells treated with the compounds and un-treated mast cells were stimulated to release histamine. A reduction in histamine release by the treated cells compared to the untreated cells indicates stabilisation of the membrane. The compounds were assessed for their ability to relax smooth muscle in vitro. Intestinal smooth muscle was stimulated to contract, using calcium chloride and subsequently treated with the compounds, relaxation of the contraction was measured for each compound. The effects of the compounds were also studied on relaxation of guinea-pig tracheal muscle. In the rat paw oedema test, the drugs were administered systemically prior to inducing inflammation by the injection of carageenan below the plantar aponeurosis of the hind paw. The volume of the paw was determined both before and after treatment as an index of oedema. In the mouse ear oedema test, the drugs were administered topically prior to inducing inflammation by the topical application of arachidonic acid. The width of the ear was determined both before and after treatment as an index of oedema.
The buffered salt solution (BSS) was prepared in advance (NaCl 137 mM; KCl 2.7 mM; MgCl2 1.0 mM; CaCl2 0.5 mM, NaH2PO4 0.4 mM; Glucose 5.6 mM; HEPES 10 mM). This was dispensed into test tubes and heated to 37° C., each test tube contained 4.5 ml BSS. The solvent blank was supplemented with 0.5% (v/v) dimethyl sulphoxide (DMSO) or 0.5% (v/v) distilled water (dH2O). The two positive controls were supplemented with 0.5% (v/v) dH2O/2×10^−5M disodium cromoglycate (DSCG) and 0.5% (v/v) DMSO/2×10^−5M DSCG. The test compounds' incubation tubes contained 2×10^−5M test compound/0.5% (v/v) DMSO. The basal release, maximum release and total histamine content incubation tubes contained no additions.
Female Wistar rats (200-300 g) were killed in an atmosphere of saturated CO2. Pre-warmed BSS (10 ml) was injected i.p. and the abdomen was massaged for 3 min. The BSS, with suspended mast cells and other cells, was aspirated following a mid-line incision. The aspirate was centrifuged for 5 min at 400 g and the supernatant removed. The cells were re-suspended in BSS, at 4° C., and centrifuged as before the cells were washed in this manner a total of three times. Following the final wash, the pelleted cells were stored at 4° C., for use as soon as possible.
The cells were re-suspended in 7 ml BSS. From this, 0.5 ml aliquots were transferred to each of the incubation tubes. After 10 min at 37° C. with gentle agitation, Compound 48/80 was added to a final concentration of […], in order to stimulate histamine release. The cell stimulation was stopped after 2 min by the addition of 0.5 ml ice cold BSS, the incubation tubes were transferred to an ice bath. The cell suspensions were centrifuged for 5 min at 400 g. The “total histamine content” tube was placed at 100° C. for 2 min prior to centrifugation. The supernatants were retained for histamine assay.
To 2 ml of supernatant from each tube was added 0.4 ml of 1M NaOH and 0.1 ml oPT (1% (w/v) in methanol). This was incubated at room temperature for 4 min. The reaction was stopped by the addition of 0.2 ml of 3M HCl. The supernatant from each incubation tube was assayed in duplicate and run simultaneously with a standard curve in the range 0-1000 ng/ml. The presence of the fluorescent product of the reaction was measured using a Shimazu RF-1501 spectrofluorophotometer set at λex=360 nm, λem=450 nm.
Each drug was tested on at least five animals (n=5). The results were expressed as a percentage of maximum, compound 48/80 induced, histamine release in the solvent blank sample. Each drug was compared to DSCG on the same tissues. The basal histamine release in untreated cells was noted, expressed as a percentage of the total histamine content of the cells in suspension. […]

ileum = test: Smooth muscle effects: CaCl2 induced contractions of ileum; parameters: species or system Guinea pigs; conditions: for inhibition at 3 µM / inhibition at 10 µM / inhibition at 0.3 µM / inhibition at 0.03 µM / inhibition at 1 µM / inhibition at 0.1 µM: Cavia porcellus, read-out: Percentage Inhibition of CaCl2 Induced Contractions
Method: as §1
(§2) Guinea pigs (350 g approx.), of either sex, were killed in an atmosphere of saturated CO2. The abdomen was opened by a mid-line incision and the small intestine was removed. The trachea was removed and sectioned between the cartilage rings, which were then split through.
(§3) Segments of ileum (1-1.5 cm) were suspended in a high potassium, no calcium Krebs buffer (NaCl 160.44 mM); KCl 45 mM; MgCl2 0.54 mM; NaH2PO4 0.89 mM; NaH2CO3 24.9 mM; Glucose 11.1 mM). Tracheal sections were suspended in normal Krebs buffer (NaCl […]; KCl 4.7 mM; CaCl2 2.5 mM; MgCl2 0.54 mM; NaH2PO4 0.89 mM; NaHCO3 24.9 mM; Glucose 11.1 mM). The solutions were maintained at 37° C. by a jacketed organ bath and gassed with 95% O2 and 5% CO2. The tissues were anchored by thread to the bottom of the organ bath and suspended from force displacement transducers under a resting tension of 1 g approx. in the case of ileum and 4 g approx. in the case of trachea. Isotonic contractions were recorded using a MacLab/4e system in conjunction with the Chart 3.3.1 software package. Surplus tissue was stored at 4° C. in Krebs buffer, for a maximum of 48 hours.
(§4) Four segments of tissue were suspended and observed concurrently. Contractions were initiated by the addition of 25 μl of 1M CaCl2 (a final concentration of 2.5 mM). The contractions stabilized with time, 10-15 min, and could be maintained for up to 45 min. from the addition of the CaCl2. The tracheal sections were allowed to develop spontaneous resting tension over a period of 30 mins.
Stock solutions of drug were prepared at 10^−3M in 50% (v/v) DMSO. These were diluted to give; 10^−4M in 5% (v/v) DMSO and 10^−5M in 0.5% (v/v) DMSO. In cases of poor solubility the 10^−3M stock was made up in higher concentrations of DMSO. Solvent ‘blank’ solutions were prepared containing 50%, 5% and 0.5% (v/v) DMSO (or as appropriate). […] A second cumulative dose-response assay was carried out using DMSO ‘blank’ solutions only.
(§5) Each drug was tested, in duplicate, on at least three different animals (n=3). The results were expressed as percentage inhibition of the CaCl2 induced contraction in the case of ideal tissue and percentage relaxation in the case of tracheal tissue, for each tissue, at each concentration of drug in DMSO. The effect of DMSO, for each tissue at each concentration, was subtracted from the effect of the drug in DMSO, to give the effect of the drug alone. A log dose vs. response curve was plotted for each drug using the mean and the standard error of the mean for the cumulated results.

mouse ear oedema = test: Mouse ear oedema model (arachidonic acid induced); type: in vivo, Laca mice; conditions: 300 μg per ear topically 30 min prior to 400 μg arachidonic acid; 1 hour after arachidonic acid; n=4
Method: as §1
The mouse ear oedema model was performed using Laca mice (25-35 g), of either sex. The animals were sedated with fentanyl/fluanisone (Hypnorm, Janssen). One ear was treated by the topical application of one of a range of test compounds, indomethacin or dexamethasone (all at 300 μg ear in acetone) drug. After 30 min, oedema was induced by the topical application of arachidonic acid (10 μl at […] in acetone). The thickness of each ear was measured, both before and 60 min after the induction of oedema, using a micrometer screw gauge. Ear oedema was calculated by comparing the ear width before and after induction of oedema and expressed as percentage normal.
Responses of the mouse ear to single doses of a range of compounds compared to the response to indomethacin and dexamethasone, each at a dose of 300 μg per ear administered topically 30 min prior to administration of 400 μg of arachidonic acid. Values are expressed as the percentage increase in ear thickness 1 hour after administration of arachidonic acid (all n=4, solvent controls (n=8)).

trachea = test: Smooth muscle effects: spontaneous tone of tracheal sections; parameters: species or system Guinea pigs; conditions: guinea pig trachea, percentage relaxation; for inhibition at 3 µM / inhibition at 10 µM: Cavia porcellus
Method: as §1, §2, §3, §4
Stock solutions of drug were prepared at 10^−3M in 50% (v/v) DMSO. These were diluted to give; 10^−4M in 5% (v/v) DMSO and 10^−5M in 0.5% (v/v) DMSO. In cases of poor solubility the 10^−3M stock was made up in higher concentrations of DMSO. Solvent ‘blank’ solutions were prepared containing 50%, 5% and 0.5% (v/v) DMSO (or as appropriate). A cumulative dose-response assay was carried out in the range 5×10^−8M to 10^−5M. A second cumulative dose-response assay was carried out using DMSO ‘blank’ solutions only.
as §5

[1] = 3 × 10^−6 M, guinea pig ileum, DMSO effect subtracted
[2] = 10^−5 M, guinea pig ileum, DMSO effect subtracted

CC(=O)N(C1Cc2ccccc2C1)C1CC(=O)c2ccccc21 (stereo not drawn) [Compound 6C11, N-2-Indanyl-N-3-indan-1-onylethanamide]
inhibition at 20 µM (mast cells): 4.26%
inhibition at 3 µM (ileum; [1]): 8%
inhibition at 10 µM (ileum; [2]): 12.5%
percentage increase in ear thickness (Mean %) (mouse ear oedema): 26.0%

C=CCN(C1CC(=O)c2ccccc21)[C@H]1CCc2ccccc21 (stereo partly drawn) [5C6 BS]
Percentage Inhibition of Histamine Release (mast cells): 80.29%
Percentage Inhibition of Spontaneous Tone (trachea; 3 × 10^−6 M): 2.03%
Percentage Inhibition of Spontaneous Tone (trachea; 10^−5 M): 4.09%
Percentage Inhibition of CaCl2 Induced Contractions (ileum; [1]): 13.66%
Percentage Inhibition of CaCl2 Induced Contractions (ileum; [2]): 31.47%

C=CCN(C1CC(=O)c2ccccc21)[C@H]1CCc2ccccc21 (stereo partly drawn) [5C6 TS]
inhibition at 20 µM (mast cells): 75.2%
inhibition at 3 µM (trachea; 3 × 10^−6 M): 1.63%
inhibition at 10 µM (trachea; 10^−5 M): 2.71%
Percentage Inhibition of CaCl2 Induced Contractions (ileum; [1]): 5.29%
inhibition at 10 µM (ileum; [2]): 19.4%

COc1ccc2c(c1)c(CC(=O)O)c(C)n2C(=O)c1ccc(Cl)cc1 [Indomethacin, reference compound]
percentage increase in ear thickness (Mean %) (mouse ear oedema): 39.6%

CC(=O)N(C1CCc2ccccc21)C1CC(=O)c2ccccc21 (stereo not drawn) [Compound 5C9, N-1-Indanyl-N-3-indan-1-onylethanamide]
inhibition at 20 µM (mast cells): 14.3%
inhibition at 3 µM (trachea; 3 × 10^−6 M): 2.64%
inhibition at 10 µM (trachea; 10^−5 M): 2.38%
inhibition at 3 µM (ileum; [1]): 9.06%
inhibition at 10 µM (ileum; [2]): 18.3%

CN(C1Cc2ccccc2C1)C1CC(=O)c2ccccc21 (stereo not drawn) [Compound 6C6, 3-(N-methyl-N-2-indanylamino)-indan-1-one]
inhibition at 20 µM (mast cells): 68%
inhibition at 3 µM (ileum; [1]): 12.6%
inhibition at 0.3 µM (ileum; 3 × 10^−7 M, guinea pig ileum, DMSO effect subtracted): 4.64%
inhibition at 0.03 µM (ileum; 3 × 10^−8 M, guinea pig ileum, DMSO effect subtracted): 0.15%
inhibition at 10 µM (ileum; [2]): 22.9%
inhibition at 1 µM (ileum; 10^−6 M, guinea pig ileum, DMSO effect subtracted): 9.01%
inhibition at 0.1 µM (ileum; 10^−7 M, guinea pig ileum, DMSO effect subtracted): 2.75%
percentage increase in ear thickness (Mean %) (mouse ear oedema): 73.0%

C[C@@H]1C[C@H]2[C@@H]3CCC4=CC(=O)C=C[C@]4(C)[C@@]3(F)[C@@H](O)C[C@]2(C)[C@@]1(O)C(=O)CO [Dexamethasone, reference compound]
percentage increase in ear thickness (Mean %) (mouse ear oedema): 37.9%

Cc1ccc(S(=O)(=O)N(C2Cc3ccccc3C2)C2CC(=O)c3ccccc32)cc1 (stereo not drawn) [Compound 6C10, N-2-Indanyl-N-3-indan-1-onyl-p-toluenesulfonamide]
inhibition at 20 µM (mast cells): 51.1%
inhibition at 3 µM (trachea; 3 × 10^−6 M): -0.75%
inhibition at 10 µM (trachea; 10^−5 M): 0.5%

C=CCN(C1Cc2ccccc2C1)C1CC(=O)c2ccccc21 (stereo not drawn) [Compound 6C7, 3-(N-prop-2-enyl-N-2-indanylamino)-indan-1-one]
inhibition at 20 µM (mast cells): 89.5%
inhibition at 0.03 µM (ileum): 1.16%
inhibition at 0.1 µM (ileum): 3.15%
inhibition at 0.3 µM (ileum): 4.52%
inhibition at 1 µM (ileum): 5.36%
inhibition at 3 µM (ileum): 10.7%
inhibition at 10 µM (ileum): 21.8%
percentage increase in ear thickness (Mean %) (mouse ear oedema): 71.5%

C=CCN(C1CCc2ccccc21)C1CC(=O)c2ccccc21 (stereo not drawn) [Compound 5C6, 3-(N-prop-2-enyl-N-1-indanylamino)-indan-1-one]
Percentage Inhibition of Histamine Release (mast cells): 77.77%
inhibition at 0.03 µM (ileum): -1%
inhibition at 0.1 µM (ileum): 0.02%
inhibition at 0.3 µM (ileum): 0.36%
inhibition at 1 µM (ileum): 1.31%
inhibition at 3 µM (ileum): 8.84%
inhibition at 10 µM (ileum): 20.9%
percentage increase in ear thickness (Mean %) (mouse ear oedema): 52.0%
